Experimental data from patent US8586579B2, “Anellated pyridine compounds” (Hoffmann-La Roche Inc., priority 2010, dated 2013).
Where two headings read alike, the source gives them in different places.

Experiments:
human D2 receptor = human D2 receptor (Homo sapiens (Human), UniProt P14416); experiment: Radioligand binding assay, [3H]-spiperone, human D2 receptor; conditions: membranes of HEK293 EBNA cells expressing human D2; 0.7 nM [3H]-spiperone
Method: (§1) HEK293 EBNA cells were transiently transfected with expression plasmids encoding for the human D2 or D3 or for the human 5-HT2A receptor, respectively. The cells were harvested 48 h post-transfection, washed three times with cold PBS and stored at −80° C. prior to use. The pellet was suspended in cold 50 mM Tris-HCl buffer comprising 10 mM EDTA (pH 7.4) and was homogenized with a Polytron (Kinematica AG, Basel, Switzerland) for 20-30 sec at 12.000 rpm. After centrifugation at 48.000×g for 30 min at 4° C., the pellet was resuspended in cold 10 mM Tris-HCl buffer comprising 0.1 mM EDTA (pH 7.4), homogenized, and centrifuged as above. This pellet was further resuspended in a smaller volume of ice cold 10 mM Tris-HCl buffer comprising 0.1 mM EDTA (pH 7.4) and homogenized with a Polytron for 20-30 sec at 12.000 rpm. The protein content of this homogenate was determined with the Bio-Rad (Bradford) Protein Assay (Biorad Laboratories GmbH, München, Germany) according to the instructions of the manufacturer using gamma globulin as the standard. This homogenate was stored at −80° C. in aliquots and thawed immediately prior to use.
(§2) Aliquots of membrane preparations were thawed at RT, resuspended in assay buffer (D2, D3: 50 mM Tris-HCl, 120 mM NaCl, 5 mM MgCl2, 1 mM EDTA, 5 mM KCl, 1.5 mM CaCl2, pH=7.4; 5-HT2A: 50 mM Tris-HCl, 10 mM MgCl2, 1 mM EGTA, pH=7.4), homogenized with a Polytron for 20-30 sec at 12.000 rpm and adjusted to a final concentration of approximately 7.5 μg protein/well (D2, D3) and 15 μg protein/well (5-HT2A), respectively.
(§3) The binding affinity (Ki) of the compounds was determined using radioligand binding. Membranes were incubated in a total volume of 200 μl with a fixed concentration of radioligand (final concentration approximately 0.7 nM [^3H]-spiperone for D2, 0.5 nM [^3H]-spiperone for D3, and 1.1 nM [^3H]-ketanserin for 5-HT2A) and ten concentrations of test compound in ranging between 10 μM-0.1 nM for 1 h at RT. […] The nonspecific binding was determined with equally composed reaction mixtures in the presence of 10 μM unlabelled spiperone. Per well 45 μl of Microscint 40 (Perkin Elmer, Schwerzenbach, Switzerland) was added, plates for sealed, shaken for 20 min and counted for 3 min on a Topcount Microplate Scintillation Counter (Can berra Packard SA, Zürich, Switzerland) with quenching correction.
(§4) The CPM value for each duplicate of a concentration of competing compound was averaged (y1), then the % specific binding was calculated according to the equation (((y1−non-specific)/(total binding−non-specific))×100). Graphs were plotted with the % specific binding using XLfit, a curve fitting program that iteratively plots the data using Levenberg-Marquardt algorithm. […] The affinity constant (K) was calculated using the Cheng-Prusoff equation Ki=(IC50/1+([L]/Kd), where [L] is the concentration of radioligand and Kd is the dissociation constant of the radioligand at the receptor as determined by the saturation isotherm.

human D3 receptor = human D3 receptor (Homo sapiens (Human), UniProt P35462); experiment: Radioligand binding assay, [3H]-spiperone, human D3 receptor; conditions: membranes of HEK293 EBNA cells expressing human D3; 0.5 nM [3H]-spiperone
Sequence of human D3 receptor (P35462 whole entry): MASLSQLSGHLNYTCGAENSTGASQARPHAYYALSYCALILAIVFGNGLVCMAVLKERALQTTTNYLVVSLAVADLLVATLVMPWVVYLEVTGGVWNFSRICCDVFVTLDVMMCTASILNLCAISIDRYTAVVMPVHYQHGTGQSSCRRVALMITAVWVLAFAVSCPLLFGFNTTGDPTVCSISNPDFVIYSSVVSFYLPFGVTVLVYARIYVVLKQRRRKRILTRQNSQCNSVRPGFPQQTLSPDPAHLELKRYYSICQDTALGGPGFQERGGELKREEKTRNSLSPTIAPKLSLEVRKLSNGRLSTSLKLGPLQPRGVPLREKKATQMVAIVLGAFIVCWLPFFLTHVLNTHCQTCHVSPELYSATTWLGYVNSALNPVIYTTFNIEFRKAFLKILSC
Method: as §1, §2, §3
as §4, with “algorithm. The single site competition analysis equation used was y=A+((B−A)/(1+((x/C)D))), where y is the % specific binding, A is the minimum y, B is the maximum y, C is the IC50, x is the log 10 of the concentration of the competing compound and D is the slope of the curve (the Hill Coefficient).” for “algorithm.”

human 5-HT2A receptor = human 5-HT2A receptor (Homo sapiens (Human), UniProt P28223); experiment: Radioligand binding assay, [3H]-ketanserin, human 5-HT2A receptor
Sequence of human 5-HT2A receptor (P28223 whole entry): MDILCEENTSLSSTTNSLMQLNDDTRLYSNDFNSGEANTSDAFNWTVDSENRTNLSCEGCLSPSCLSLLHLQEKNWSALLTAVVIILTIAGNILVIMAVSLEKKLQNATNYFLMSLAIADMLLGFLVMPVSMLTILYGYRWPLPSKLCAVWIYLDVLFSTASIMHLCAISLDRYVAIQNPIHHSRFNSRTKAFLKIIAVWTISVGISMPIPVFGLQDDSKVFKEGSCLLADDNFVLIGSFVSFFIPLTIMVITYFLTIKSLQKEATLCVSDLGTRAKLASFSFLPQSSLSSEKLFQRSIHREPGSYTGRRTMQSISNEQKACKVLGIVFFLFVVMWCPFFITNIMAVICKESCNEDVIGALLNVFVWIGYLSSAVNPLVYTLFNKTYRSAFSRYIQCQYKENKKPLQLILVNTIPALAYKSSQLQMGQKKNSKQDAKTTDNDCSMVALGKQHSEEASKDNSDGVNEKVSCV
Method: as §1, §2, §3
as §4, with “algorithm. The single site competition analysis equation used was y=A+((B−A)/(1+((x/C)D))), where y is the % specific binding, A is the minimum y, B is the maximum y, C is the IC50, x is the log 10 of the concentration of the competing compound and D is the slope of the curve (the Hill Coefficient).” for “algorithm.”

[1] = membranes of HEK293 EBNA cells expressing human 5-HT2A, 1.1 nM [3H]-ketanserin

Sequence of human D2 receptor (P14416 whole entry): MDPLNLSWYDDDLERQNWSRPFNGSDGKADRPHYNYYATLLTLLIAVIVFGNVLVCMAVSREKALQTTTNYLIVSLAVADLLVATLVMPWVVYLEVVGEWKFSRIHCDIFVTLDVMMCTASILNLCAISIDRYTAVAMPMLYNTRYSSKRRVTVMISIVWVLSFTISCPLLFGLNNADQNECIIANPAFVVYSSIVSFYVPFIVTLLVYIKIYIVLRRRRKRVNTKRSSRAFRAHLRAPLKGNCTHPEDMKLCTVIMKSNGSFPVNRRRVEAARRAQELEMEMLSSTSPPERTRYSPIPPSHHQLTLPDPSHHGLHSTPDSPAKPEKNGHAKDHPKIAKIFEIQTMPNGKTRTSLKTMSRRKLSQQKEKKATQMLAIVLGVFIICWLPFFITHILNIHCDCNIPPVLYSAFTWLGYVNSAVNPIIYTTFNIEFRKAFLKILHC

Row | SMILES | Ki (human D2 receptor) [nM] | Ki (human D3 receptor) [nM] | Ki (human 5-HT2A receptor) [nM] | melting point [°C] | Ki (human 5-HT2A receptor; [1]) [nM]
1 | Cc1cc(C(=O)N[C@H]2CC[C@H](CCN3CCN(c4nccc5c4CCO5)CC3)CC2)on1 [Example 85, 3-Methyl-isoxazole-5-carboxylic acid trans-(4-{2-[4-(2,3-dihydro-furo[3,2-c]pyridin-4-yl)-piperazin-1-yl]-ethyl}-cyclohexyl)-amide] | 397 | 31.1 | 15.7 | 218 | –
2 | CCC(C)C(=O)N[C@H]1CC[C@H](CCN2CCN(c3nccc4c3CCO4)CC2)CC1 (mixture of isomers) [Example 76, trans-N-(4-{2-[4-(2,3-Dihydro-furo[3,2-c]pyridin-4-yl)-piperazin-1-yl]-ethyl}-cyclohexyl)-rac-2-methyl-butyramide] | 709 | 25.4 | – | 205.5 | 13.2
3 | CS(=O)(=O)CC(=O)N[C@H]1CC[C@H](CCN2CCN(c3nccc4c3CCO4)CC2)CC1 [Example 39, trans-N-(4-{2-[4-(2,3-Dihydrofuro[3,2-c]pyridin-4-yl)-piperazin-1-yl]-ethyl}-cyclohexyl)-methylsulfonyl-acetamide] | 1020 | 9.8 | 16.1 | 260.5 | –
4 | O=C(N[C@H]1CC[C@H](CCN2CCN(c3nccc4c3CCO4)CC2)CC1)c1ccc(N2CCOCC2)nc1 [Example 119, trans-N-(4-{2-[4-(2,3-Dihydro-furo[3,2-c]pyridin-4-yl)-piperazin-1-yl]-ethyl}-cyclohexyl)-6-morpholin-4-yl-nicotinamide] | 998 | 44.7 | 15.6 | 222 | –
5 | O=C(CCO)N[C@H]1CC[C@H](CCN2CCN(c3nccc4c3CCO4)CC2)CC1 [Example 41, trans-N-(4-{2-[4-(2,3-Dihydrofuro[3,2-c]pyridin-4-yl)-piperazin-1-yl]-ethyl}-cyclohexyl)-3-hydroxypropanamide] | 734 | 11.5 | 35.7 | 173 | –
6 | COC(CC(=O)N[C@H]1CC[C@H](CCN2CCN(c3nccc4c3CCO4)CC2)CC1)OC [Example 113, trans-N-(4-{2-[4-(2,3-Dihydro-furo[3,2-c]pyridin-4-yl)-piperazin-1-yl]-ethyl}-cyclohexyl)-3,3-dimethoxy-propionamide] | 1380 | 19.3 | – | 220 | 15.7
7 | C[C@]1(O)CC[C@@H](C(=O)N[C@H]2CC[C@H](CCN3CCN(c4nccc5c4CCO5)CC3)CC2)CC1 [Example 55, cis-4-Hydroxy-4-methyl-cyclohexanecarboxylic acid trans-(4-{2-[4-(2,3-dihydro-furo[3,2-c]pyridin-4-yl)-piperazin-1-yl]-ethyl}-cyclohexyl)-amide] | 475 | 45.3 | – | 216.5 | 6.14
8 | CO[C@H]1CC[C@H](CC(=O)N[C@H]2CC[C@H](CCN3CCN(c4nccc5c4CCO5)CC3)CC2)CC1 [Example 65, trans-N-(4-{2-[4-(2,3-Dihydro-furo[3,2-c]pyridin-4-yl)-piperazin-1-yl]-ethyl}-cyclohexyl)-2-trans-(4-methoxy-cyclohexyl)-acetamide] | 2450 | 24.1 | – | 192.5 | 14.9
9 | CC(C)(C)c1ccc(C(=O)N[C@H]2CC[C@H](CCN3CCN(c4nccc5c4CCO5)CC3)CC2)cc1 [Example 131, trans-4-tert-Butyl-N-(4-{2-[4-(2,3-dihydro-furo[3,2-c]pyridin-4-yl)-piperazin-1-yl]-ethyl}-cyclohexyl)-benzamide] | 1660 | 147 | 66.7 | 186.5 | –
10 | CC(=O)N[C@H]1CC[C@H](CCN2CCN(c3nc(C)cc4occc34)CC2)CC1 [Example 96, trans-N-(4-{2-[4-(6-Methyl-furo[3,2-c]pyridin-4-yl)-piperazin-1-yl]-ethyl}-cyclohexyl)-acetamide] | 249 | 4.64 | – | 207.5 | 75.2
11 | O=C(CO)N[C@H]1CC[C@H](CCN2CCN(c3nccc4c3CCO4)CC2)CC1 [Example 40, trans-N-(4-{2-[4-(2,3-Dihydrofuro[3,2-c]pyridin-4-yl)-piperazin-1-yl]-ethyl}-cyclohexyl)-hydroxyacetamide] | 1570 | 15.9 | – | 237 | 12.2
12 | O=C(CC1CC1)N[C@H]1CC[C@H](CCN2CCN(c3nccc4c3CCO4)CC2)CC1 [Example 51, trans-2-Cyclopropyl-N-(4-{2-[4-(2,3-dihydro-furo[3,2-c]pyridin-4-yl)-piperazin-1-yl]-ethyl}-cyclohexyl)-acetamide] | 587 | 5.07 | 13.7 | 193 | –
13 | O=C(N[C@H]1CC[C@H](CCN2CCN(c3nccc4c3CCO4)CC2)CC1)c1ccc(-n2cccc2)cc1 [Example 133, trans-N-(4-{2-[4-(2,3-Dihydro-furo[3,2-c]pyridin-4-yl)-piperazin-1-yl]-ethyl}-cyclohexyl)-4-pyrrol-1-yl-benzamide] | 163 | 24.4 | – | 234 | 24.2
14 | CC#CC(=O)N[C@H]1CC[C@H](CCN2CCN(c3nccc4c3CCO4)CC2)CC1 [Example 82, But-2-ynoic acid trans-(4-{2-[4-(2,3-dihydro-furo[3,2-c]pyridin-4-yl)-piperazin-1-yl]-ethyl}-cyclohexyl)-amide] | 426 | 17.2 | – | 193 | 12.2
15 | O=C(N[C@H]1CC[C@H](CCN2CCN(c3nccc4c3CCO4)CC2)CC1)C1(O)CCC1 [Example 123, 1-Hydroxy-cyclobutanecarboxylic acid trans-(4-{2-[4-(2,3-dihydro-furo[3,2-c]pyridin-4-yl)-piperazin-1-yl]-ethyl}-cyclohexyl)-amide] | 959 | 131 | – | 177.5 | 9.8
16 | O=C(N[C@H]1CC[C@H](CCN2CCN(c3nccc4c3CCO4)CC2)CC1)C1CCOCC1 [Example 33, trans-N-(4-{2-[4-(2,3-Dihydrofuro[3,2-c]pyridin-4-yl)-piperazin-1-yl]-ethyl}-cyclohexyl)-tetrahydro-2H-pyran-4-carboxamide] | 504 | 38.2 | – | 263 | 5.9
17 | O=C(CC1CCOCC1)N[C@H]1CC[C@H](CCN2CCN(c3nccc4c3CCO4)CC2)CC1 [Example 34, trans-N-(4-{2-[4-(2,3-Dihydrofuro[3,2-c]pyridin-4-yl)-piperazin-1-yl]-ethyl}-cyclohexyl)-2-(tetrahydro-2H-pyran-4-yl)-acetamide] | 869 | 24.9 | – | 233 | 20.1
18 | CC(=O)N[C@H]1CC[C@H](CCN2CCN(c3ncc(C)c4occc34)CC2)CC1 [Example 104, trans-N-(4-{2-[4-(7-Methyl-furo[3,2-c]pyridin-4-yl)-piperazin-1-yl]-ethyl}-cyclohexyl)-acetamide] | 1460 | 21.5 | – | 208 | 13.7
